Laboratory results reported in patent publication US4216226A (priority 1977, dated 1980).
Where a name gives a salt, the structure may show the parent alone. Read-outs that look alike come from different tables or passages of the source.

Columns and labels:
Herpes virus = assay type: cell-based
[1] = system: Newcastle disease virus Miyadera strain; assay type: in vivo, embryonated chick egg; details: for MDT (difference from control): Miyadera strain, 104 hours incubation
[2] = system: Newcastle disease virus (NDV) Miyadera strain; assay type: cell-based
[3] = system: Influenza virus A0 /PR-8 strain; assay type: in vivo, mice of the ICR strain; details: intraperitoneal, twice a day for 3 days, mouse lung at 72 hours
[4] = system: Infectious pancrease necrosis virus (IPNV); assay type: cell-based
in vitro [5] = details: rainbow trout, rtg-2 cells
mice = details: mouse, in vivo, ip
[6] = system: Influenza virus A-O/PR-8 strain; assay type: cell-based
[7] = system: Newcastle disease virus Komarov strain; assay type: in vivo, embryonated chick egg; details: for MDT (difference from control): Komarov strain, 104 hours incubation
in vitro [8] = details: human, hela s3 cells
[9] = system: Vaccinia virus Lister strain; assay type: cell-based
[10] = system: Newcastle disease virus I(1) strain; assay type: in vivo, embryonated chick egg; details: 104 hours incubation
[11] = system: Newcastle disease virus Sato strain; assay type: in vivo, embryonated chick egg; details: for MDT (difference from control): Sato strain, 104 hours incubation
[12] = system: vaccinia virus Lister strain; assay type: in vivo, mice of the ICR strain; details: subcutaneous, 4 times first day, twice a day days 2-5, 10th day
[13] = system: Vesicular stomatitis virus (VSV); assay type: cell-based
[14] = HeLa S3 cell, 37° C., 5-7 days, at MDC, 1/2 or 1/4 MDC, vs control
[15] = Vero cell, 37° C., 5-7 days, at MDC, 1/2 or 1/4 MDC, vs control
[16] = L-929 cell, 37° C., 5-7 days, at MDC, 1/2 or 1/4 MDC, vs control

Row | SMILES | Difference of -log TCID50 /ml, NDV [2, 14] | Difference of -log TCID50 /ml, IPNV [4] | MCC (in vitro [5]) [µg/mL] | Difference of -log TCID50 /ml, Influenza virus [6, 15] | MCC (in vitro [8]) [µg/mL] | Difference of -log TCID50 /ml, VSV [13, 16] | further results
1 | N[C@@H](Cc1ccc(O)cn1)C(=O)O | > 4.00 | 3.75 | 500 | 1.00 | 500 |  | Difference of -log TCID50 /ml, Herpes virus (Herpes virus): > 2.50; MDT (difference from control) ([1]; 500 mg per egg): -3.1; MDT (difference from control) ([1]; 1,000 mg per egg): 14.8; Per cent of Inhibition (virus multiplication, HA units) ([3]; 50 mg/kg): 52%; Per cent of Inhibition (virus multiplication, HA units) ([3]; 100 mg/kg): 77%; Acute toxicity LD0 (mice): > 1000 mg/kg; MDT (difference from control) ([7]; 500 mg per egg): 3.2; MDT (difference from control) ([7]; 1,000 mg per egg): 0; Δlog MLD ([7]; in vivo): 1.0; Difference of -log TCID50 /ml, Vaccinia virus [9, 14]: > 1.97; MDT (difference from control) ([10]; 500 mg per egg): > 80.4; MDT (difference from control) ([10]; 1,000 mg per egg): > 16.8; MDT (difference from control) ([11]; 500 mg per egg): > 12.1; MDT (difference from control) ([11]; 1,000 mg per egg): > 19.2; Δlog MLD ([11]; in vivo): 0.5; Percent of inhibition of pock ([12]; 6.2 mg/kg): 56.9%
2 | NCC(N)C(=O)O (racemic) [DL-Aminomethyl glycine hydrochloride] | 1.50 |  | 3000 | 1.00 | > 1000 | 0.33 | Difference of -log TCID50 /ml, Herpes virus (Herpes virus): > 2.50; Difference of -log TCID50 /ml, Vaccinia virus [9, 14]: 0.17
3 | NC(=O)NCC(N)C(=O)O (racemic) [DL-Ureidomethyl glycine] | 1.17 | 3.50 | 2000 |  | > 1000 |  | 
4 | NC(Cc1ccc(O)cn1)C(=O)O (racemic) [DL-p-Hydroxypyridylmethyl glycine] | > 3.00 | 3.50 | 1000 | 0.50 | > 1000 | > 2.83 | 
5 | NC(Cc1ccc(F)cc1)C(=O)O (racemic) [DL-p-fluoro-phenyl alanine, reference compound] | 1.17 | 0 | 250 | 0 | 125 | 1.00 | 
6 | NC(CCP(=O)(O)O)C(=O)O (racemic) [DL-phosphonoethyl glycine] |  | 1.30 | 4000 |  | 250 |  | Difference of -log TCID50 /ml, Herpes virus (Herpes virus; Hep No. 2 cell, 37° C., 5-7 days, at MDC, 1/2 or 1/4 MDC, vs control): 0.50; Difference of -log TCID50 /ml, NDV [2]: 1.50; Difference of -log TCID50 /ml, Influenza virus [6]: 1.00; Difference of -log TCID50 /ml, VSV [13]: 0.50; Difference of -log TCID50 /ml, Vaccinia virus [9]: 1.17
7 | Cl.NC12CC3CC(CC(C3)C1)C2 [1-Adamantanamine hydrochloride, reference compound] |  | 2.75 | 31.2 | > 2.00 | 250 |  | Per cent of Inhibition (virus multiplication, HA units) ([3]; 100 mg/kg): 76%
8 | NC(=O)NO [Hydroxyurea, reference compound] |  |  |  |  |  |  | Percent of inhibition of pock ([12]; 50 mg/kg): 42.8%
9 | O=C(O)C1NC2CC21 [L-3,5-Cyclo-2-pyrrolidylcarboxylic acid] | 0.17 | 3.50 | 1000 | 2.00 | > 1000 |  | 
10 | NC[C@H](N)C(=O)O [L-Aminomethyl glycine hydrochloride] | 1.50 |  | 4000 | 1.00 | > 1000 | 0.67 | Difference of -log TCID50 /ml, Herpes virus (Herpes virus): > 2.50; Difference of -log TCID50 /ml, Vaccinia virus [9, 14]: 0.33
11 | O=C1O[C@H]([C@@H](O)CO)C(O)=C1O [L-Ascorbic acid, reference compound] | 0.83 |  | 2000 | 0 | 125 | 1.00 | 
12 | NC(=O)NC[C@H](N)C(=O)O [L-Ureidomethyl glycine hydrochloride] | > 4.00 | 3.75 | 4000 |  | > 1000 | 0.33 | Difference of -log TCID50 /ml, Herpes virus (Herpes virus): 1.50; Difference of -log TCID50 /ml, Vaccinia virus [9, 14]: 1.17
13 | NC(=O)NC[C@H](N)C(=O)O [L-Ureidomethyl glycine] |  |  |  |  |  |  | MDT (difference from control) ([1]; 500 mg per egg): 3.2; MDT (difference from control) ([1]; 1,000 mg per egg): -6.4; Δlog MLD ([1]; in vivo): 0; MDT (difference from control) ([7]; 500 mg per egg): > 13.8; MDT (difference from control) ([7]; 1,000 mg per egg): > 29.8; MDT (difference from control) ([10]; 500 mg per egg): > 5.2; MDT (difference from control) ([10]; 1,000 mg per egg): -1.6; MDT (difference from control) ([11]; 500 mg per egg): -6.4; MDT (difference from control) ([11]; 1,000 mg per egg): > 4.6
14 | CP(=O)(O)CC[C@H](N)C(=O)O [L-methylphosphinoethyl glycine, L-Methylphosphinoethyl glycine] |  |  |  |  |  |  | MDT (difference from control) ([1]; 250 mg per egg): 2.4; MDT (difference from control) ([1]; 500 mg per egg): > 45.6; Per cent of Inhibition (virus multiplication, HA units) ([3]; 50 mg/kg): 67%; MDT (difference from control) ([7]; 250 mg per egg): > 4.8; MDT (difference from control) ([7]; 500 mg per egg): > 27.8; MDT (difference from control) ([10]; 250 mg per egg): > 23.2; MDT (difference from control) ([10]; 500 mg per egg): 4.8; MDT (difference from control) ([11]; 250 mg per egg): > 30.6; MDT (difference from control) ([11]; 500 mg per egg): > 95.6
15 | COC(=O)[C@@H](N)Cc1ccc(O)cn1 [L-p-Hydroxypyridylmethyl glycine methylester hydrochloride] | 2.00 | 3.75 | 1500 | 1.00 | 1000 |  | Acute toxicity LD0 (mice): > 1000 mg/kg
